Measured values: US5445951A, “Regioselective enzymatic deacylation of sucrose esters in anhydrous organic media” (priority 1993, dated 1995)

Assays:
[1] = assay type: physicochemical; settings: estimated from known log P values / increments
Excerpt: ^a) log P is a measurement of the solvent hydrophobicity (logarithm o
the solvent partition coefficient between noctanol and water [Rekker, "Th
Hydrophobic Fragmental Constant", Elsevier, Amsterdam (1977)]). The log P
values from this table are from Laane et al. , Biotechnol Bioeng. 30,81

lipase AY 30 [2] = assay: Effect of the solvent on lipase AY 30 SOA deacetylation; assay type: biochemical, Candida cylindracea; settings: lipase AY 30, solvent as labelled, 24 hrs
Protocol: Identical enzyme catalyzed SOA deacetylations were run in numerous anhydrous solvents. After 24 hrs incubation an aliquot was analyzed by HPLC.
(§1) Enzyme and Solvent Screening for SOA Deacetylation. A scintillation vial was charged successively with 100 mg of powdered enzyme as received or prepared as described and 1.0 ml of 20 mM sucrose octaacetate (SOA) dissolved in an organic solvent. Following a 5 sec sonication, the vial was incubated in a controlled-temperature shaker at 45° C. and 300 RPM for 24 hrs. A 200 μl aliquot of the reaction mixture was withdrawn and centrifuged. The supernatant was collected and evaporated under a stream of N2. The residue was reconstituted in 200 μl of acetonitrile and 10 μl of this solution was analyzed by HPLC.

lipase AY 30 [3] = assay: Effect of the solvent on lipase AY 30 catalyzed deacylation of SOP; assay type: biochemical, Candida cylindracea; as to SheptaP's ([…]): HPLC peak 8.2 min
Protocol: (§2) Identical SOP deacylations were performed with lipase AY 30 or protease type XXIII in numerous anhydrous organic solvents, as shown in Tables 12 and 13.
as §1, with “Solvent” for “Enzyme and Solvent”, “screening” for “Screening”, “SOP deacylation.” for “SOA Deacetylation.”, “lipase AY 30” for “powdered enzyme as received”, “protease type XXIII” for “prepared”, “octapropionate (SOP) and 200mM butanol” for “octaacetate (SOA)”

protease type XXIII = assay: Effect of the solvent on protease type XXIII catalyzed deacylation of SOP; assay type: biochemical, Aspergillus oryzae; settings: 24 hrs
Protocol: as §2
as §1, with “Solvent” for “Enzyme and Solvent”, “screening” for “Screening”, “SOP deacylation.” for “SOA Deacetylation.”, “lipase AY 30” for “powdered enzyme as received”, “protease type XXIII” for “prepared”, “octapropionate (SOP) and 200mM butanol” for “octaacetate (SOA)”

alcalase = target: T1, alcalase (Bacillus licheniformis, UniProt P00780); assay: Nucleophile screening for alcalase catalyzed deacetylation of SOA in diisopropyl ether; assay type: biochemical; settings: nucleophile 200 mM, peak height ratio 1'-OH / 6'-OH heptaacetate
T1 construct: purchased Novo Nordisk (gift)
T1 sequence (P00780 106-379): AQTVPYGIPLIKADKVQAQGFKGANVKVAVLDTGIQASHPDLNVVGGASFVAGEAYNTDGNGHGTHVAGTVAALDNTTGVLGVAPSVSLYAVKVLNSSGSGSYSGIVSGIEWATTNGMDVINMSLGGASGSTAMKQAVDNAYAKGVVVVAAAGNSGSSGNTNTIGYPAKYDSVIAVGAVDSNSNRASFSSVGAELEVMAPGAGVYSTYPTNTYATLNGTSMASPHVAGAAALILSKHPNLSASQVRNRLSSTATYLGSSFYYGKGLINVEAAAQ
Protocol: (§3) Nucleophile screening for alcalase, proleather or lipase AP 12 catalyzed deacetylation of SOA. A scintillation vial was charged successively with 100 mg of powdered enzyme prepared as described, 1.0 ml of 20 mM sucrose octaacetate (SOA) and 200 mM of the nucleophile dissolved in diisopropyl ether. Following a 5 sec sonication, the vial was incubated in a controlled-temperature shaker at 45° C. and 300 RPM for 66 hrs. A 200 μl aliquot of the reaction mixture was withdrawn and centrifuged. The supernatant was collected and evaporated under a stream of N2. The residue was reconstituted in 200 μl of acetonitrile and 10 μl of this solution was analyzed by HPLC. For screening concentration effects on enzyme activity, the same protocol was followed except the nucleophile concentration was varied from 0 to 2000 mM.

lipase AP 12 = assay: Nucleophile screening for lipase AP 12 catalyzed deacetylation of SOA in diisopropyl ether; assay type: biochemical, Aspergillus niger; settings: lipase AP 12, nucleophile 200 mM, 66 hrs
Protocol: as §3

proleather = assay: Nucleophile screening for proleather catalyzed deacetylation of SOA in diisopropyl ether; assay type: biochemical, Bacillus subtilis; settings: nucleophile 200 mM
Protocol: as §3

[4] = as obtained from supplier; cited from earlier work
[5] = SOP hydrolytic enzyme screen in heptane with n-butanol; assay type: biochemical; settings: 24 hrs; as to SheptaP's ([…]): HPLC peak 8.2 min
Protocol: To extend the scope and utility of this study, sucrose octapropionate was synthesized and used as substrate in enzyme catalyzed deacylation reactions. […] The hydrolytic enzymes were screened for their capability to deacylate SOP in heptane with n-butanol as the nucleophile. After 24 hrs incubation aliquots were analyzed by HPLC.
as §1, with “screening” for “and Solvent Screening”, “SOP deacylation in heptane.” for “SOA Deacetylation.”, “octapropionate (SOP) and 200 mM butanol” for “octaacetate (SOA)”, “and” for “and evaporated under a stream of N2. The residue was reconstituted in 200 μl of acetonitrile and”

[6] = Activity and regioselectivity of enzymes for SOA deacetylation; assay type: biochemical; settings: for regioselectivity of SOA deacetylation: in words
Protocol: An important aspect of this work was to assign, unequivocally, the structures of all sucrose hepta-, hexa-, and pentaacetates obtained by enzymatic deacetylation of SOA. These structures were assigned by perdeuterioacetylation followed by ^1 H-NMR, as described by Rathbone E. B., Carbohydr. Res., 205,402 (1990).
HPLC analysis. Routine screening was performed on a Supelcosil LC-18-DB column (150×4.6 mm, 5μ) using an isocratic mode with either acetonitrile/water (35/65) or acetonitrile/water (60/40) as eluant for reactions involving sucrose octaacetate (SOA) and sucrose octapropionate (SOP), respectively. All flow rates were 1.0 ml/min with UV detection at 220 nm. To identify all products from SOA deacetylation, a gradient mode was employed using 15% to 35% acetonitrile in water over 40 minutes followed by 35/65 acetonitrile/water isocratic elution for 20 minutes. To screen nucleophiles for SOA deacetylation, an isocratic elution mode was employed using 30/70 acetonitrile/water for 16 min followed by a gradient from 30% to 35% acetonitrile in water over 5 min and finally isocratic elution using 35/65 acetonitrile/water for 16 min. To assess the enzyme regiochemistry for SOA deacetylation, an isocratic elution mode was employed using 25/75 acetonitrile/water for 55 minutes.
Identification of the Sucrose Hepta, Hexa or Pentaacetates Obtained Enzymatically. The fraction of sucrose hepta, hexa or pentaacetates were identified as follows. The compound(s) of interest was dissolved in 1.0 ml 99.0 atom % pyridine--d5 followed by addition of 1.0 ml 99 +atom % acetic anhydride--d6. The resulting solution was shaken at 45° C. and 300 RPM for several hours until TLC analysis (silica gel, 9/1 CHCl3 /MeOH) indicated complete reaction. The reaction mixture was evaporated in vacuo and the residue washed several times with water to remove residual pyridine-d5 and/or acetic anhydride-d6. The resulting oily solid was dissolved in 5 ml off chloroform and passed through Whatmann 12.5 cm 1 PS silicone treated filter paper to remove water.
(§4) The pH of commercial powdered enzymes was adjusted in the following way: The enzyme (3 g) was dissolved in 25 ml of an appropriate buffer and the pH adjusted with dilute NaOH or citric/phosphoric acid solution. Cold acetone (37.5 ml at -20° C.) was added and the precipitate collected on a medium porosity glass funnel and dried overnight at 2 millitorr. The protein pellet was ground to a fine powder and equilibrated at 4° C. over saturated aqueous potassium carbonate (RH: 43%) for 24 hrs.
as §1

[7] = SOP deacylation catalyzed by pH precipitated enzymes in diisopropyl ether; assay type: biochemical
Protocol: To increase the number and/or activities of enzymes active with SOP, pH precipitation experiments, as described for SOA, were undertaken.
as §4

[8] = SOA deacetylation catalyzed by pH precipitated enzymes in diisopropyl ether; assay type: biochemical
Protocol: A wide variety of hydrolytic enzymes were initially screened for their ability to regioselectively deacetylate SOA in organic solvents. […] Enzyme activity is dependent upon the presence of a minimum shell of water surrounding the enzyme. […] It is known that one way to improve the catalytic power of an enzyme in organic solvent is to use it in the right ionic state.
as §4, §1

[9] = HPLC sucrose heptaacetate peak height
[10] = diisopropyl ether, 24 hrs incubation, HPLC

## CC1CCC(C)O1 (stereo not shown) [2,5-dimethyl THF, 2,5-dimethyltetrahydrofuran]
[1]
  log P: 1.5
Lipase AY 30 [2]
  SOA: 96.2%
  SheptaA: 3.8%
  ShexaA: 0%

## CC#N [acetonitrile]
Lipase AY 30 [3]; lipase AY 30, 24 hrs, HPLC peak 4.2 min
  ShexaP (4.2 min): 0%
Lipase AY 30 [3]; lipase AY 30, 24 hrs, HPLC peak 8.9 min
  SheptaP's (8.9 min): 0%
Lipase AY 30 [3]; lipase AY 30, 24 hrs, HPLC peak 9.4 min
  SheptaP's (9.4 min): 0.2%
Lipase AY 30 [3]; lipase AY 30, 24 hrs, HPLC peak […]
  SheptaP's ([…]): 1.1%
Lipase AY 30 [3]; lipase AY 30, solvent as labelled, 200 mM butanol, 24 hrs, peak 21.4 min
  SOA: 98.7%
Protease type XXIII; HPLC peak 8.3 min
  SheptaP's (8.3 min): 1.1%
Protease type XXIII; HPLC peak 8.9 min
  SheptaP's (8.9 min): 0%
Protease type XXIII; HPLC peak 9.9 min
  SheptaP's (9.9 min): 0.5%
Protease type XXIII; solvent as labelled
  SOP: 98.4%
Lipase AY 30 [2]
  SOA: 98.6%
  SheptaA: 1.4%
  ShexaA: 0%

## CCOCCOCC [ethylene glycol diethyl ether]
[1]
  log P: 0.87
Lipase AY 30 [2]
  SOA: 85.0%
  SheptaA: 13.5%
  ShexaA: 1.5%

## OCC1CCCCC1 [cyclohexylmethanol]
alcalase
  regiochem: 8.1
Lipase AP 12
  % conv: 24.8%
proleather; 66 hrs
  % conv: 42.8%
proleather; peak height ratio 1'-OH / 6'-OH heptaacetate
  regiochem: 4.4

B1: papain: Sigma, Papaya latex (protein, UniProt P00784 134-345, looked up)
Papain: IPEYVDWRQKGAVTPVKNQGSCGSCWAFSAVVTIEGIIKIRTGNLNEYSEQELLDCDRRSYGCNGGYPWSALQLVAQYGIHYRNTYPYEGVQRYCRSREKGPYAAKTDGVRQVQPYNEGALLYSIANQPVSVVLEAAGKDFQLYRGGIFVGPCGNKVDHAVAAVGYGPNYILIKNSWGTGWGENGYIRIKRGTGNSYGVCGLYTSSFYPVKN
[4]
  enzyme activity: 2.8 U/mg
[5]; HPLC peak 7.0 min
  SheptaP's (7.0 min): 0.3
[5]; HPLC peak […]
  SheptaP's ([…]): 0.9
[5]; residual SOP
  SOP: 98.8%

B2: alcalase: Novo Nordisk, Bacillus licheniformis (protein, UniProt P00780 106-379, looked up)
Subtilisin Carlsberg: AQTVPYGIPLIKADKVQAQGFKGANVKVAVLDTGIQASHPDLNVVGGASFVAGEAYNTDGNGHGTHVAGTVAALDNTTGVLGVAPSVSLYAVKVLNSSGSGSYSGIVSGIEWATTNGMDVINMSLGGASGSTAMKQAVDNAYAKGVVVVAAAGNSGSSGNTNTIGYPAKYDSVIAVGAVDSNSNRASFSSVGAELEVMAPGAGVYSTYPTNTYATLNGTSMASPHVAGAAALILSKHPNLSASQVRNRLSSTATYLGSSFYYGKGLINVEAAAQ
[6]; [9]
  regiochemistry 1'OH: 13
  regiochemistry 6'OH: 2
[6]; SOA deacetylation
  buffer pH (optimal pH for enzyme activity in anhydrous diisopropyl ether): 9.0
[6]
  regioselectivity of SOA deacetylation: primarily at 1'- position with some reaction occurring at the 6'- position
[6]; listed as Alcalase
  regioselectivity of SOA deacetylation: at the 1' position and secondarily at the 6' position
[6]; total of all sucrose hepta and hexa acetates
  % conv: 28.1%
[7]; SOP deacylation
  buffer pH (optimal pH for enzyme activity in anhydrous media): 9.0
[7]; diisopropyl ether, 24 hrs
  SOP: 81.8%
  SheptaP's: 15.9%
  ShexaP's: 2.3%
[7]; pH precipitated, in words
  capability of deacetylating SOP: capable of deacetylating SOP
[8]; SOA deacetylation
  buffer pH (optimal pH for enzyme activity in anhydrous solvents): 9.0
[8]; [10]
  SheptaAs: 39.7%
  ShexaAs: 10.9%
[8]; residual SOA, diisopropyl ether, 24 hrs incubation, HPLC
  SOA: 49.4%
